# Data as given in patent US11298422B2, “Treating tumors with TTFields and an aurora kinase inhibitor” (Novocure Limited, priority 2018, dated 2022).
# Key:
# Assay type in all cases: cell-based, human
# U87-MG^shp53 [1] = assay: Flow cytometry analysis of DNA contents (ploidy), U87-MG^shp53; settings: 72 h
# Experimental: For cell cycle analysis, cells were removed with Trypsin immediately after 72 h treatment, washed twice with ice-cold PBS with 1% FBS and fixed with 70% ice-cold ethanol for 30 min. After fixation, cells were washed twice with ice-cold PBS with 1% FBS, pelleted and incubated in PBS containing 10 μg/ml RNase and 7.5 μg/ml7-AAD (Sigma-Aldrich) at 37° C. for 30 min. Cell cycle distribution was then quantified using the EC800 flow cytometer (Sony Biotechnology, Japan).
# FIGS. 3A-D and 4A-E show U87-MG and U87-MG^shp53 FACS analysis of DNA contents following treatment with TTFields and AZD1152. More specifically, FIGS. 3A-D depict increased polyploidy in U87-MG cells following the combined treatment of TTFields (200 kHz, 1.6 V/cm RMS) at various AZD1152 concentrations; and FIGS. 4A-E depict increased polyploidy in U87-MG^shp53 cells following the combined treatment of TTFields (200 kHz, 1.6 V/cm RMS) at various AZD1152 concentrations.
# Tables 1 and 2 depict, for U87-MG and U87-MG^shp53 respectively, numeric data corresponding to FIGS. 3 and 4. The columns in tables 1 and 2 represent the DNA copy number (e.g., 2n is the normal number of chromosomes (23 pairs=46), 4n is twice the number of chromosomes, etc.).
# U87-MG = assay: Overall effect (surviving cells x colonies formed vs. control), U87-MG; settings: for overall effect, Observed TTFields + AZD1152 / overall effect, AZD1152: 72 h; for overall effect, Expected: expected value for the combination; for overall effect, AZD1152: surviving cells x colonies vs. control
# Experimental: (§1) The effects of the combined treatment of TTFields and the Aurora B kinase inhibitor AZD1152 was tested in 3 different glioma cell lines: U87-MG, U87-MG^shp53 and U-251. TTFields ([…], 200 kHz) were applied for 72 hours using the Inovitro system. AZD1152 was added to the media in concentrations of up to 100 nmol/L. Cell counts, cell cycle, and clonogenic potential were determined at the end of treatment. Formation of multinuclear cells was determined using microscopic images of cells stained with crystal violet.
# (§2) The effects of the combined treatment of TTFields and AZD1152 was tested using the following human glioma cell lines: U87-MG (ATCC), U-251 (ECACC) and U87-mG^shp53 (provided by Dr. Achim Temme). All cells were grown in a humidified incubator supplied with 5% CO2. Cells were maintained in EMEM, supplemented with 10% FBS, 2 mmol/L glutamine, Pen-Strep solution (100 units/ml Penicillin and 0.1 mg/ml Streptomycin), 1 mmol/L sodium pyruvate and 1% NEAA. U87-MG^shp53 cells were maintained under selection with […] geneticin. AZD1152 was obtained from Sigma, Israel.
# (§3) TTFields (1.6 V/cm RMS, 200 kHz) were applied for 72 hours using the Inovitro system. At the end of treatment, inhibition of tumor cell growth was analyzed quantitatively based on cell count. Clonogenic survival of U87-MG, U87-MG^shp53 and U-251 was tested by plating triplicates of 300 cells/dish in 6 wells dishes. After 2-3 weeks, cells were stained with crystal violet and the number of clones was quantified. Overall effect was calculated by multiplying the percentage of surviving cells at the end of treatment with the percentage of colonies formed vs. control.
# U87-MG^shp53 [2] = assay: Overall effect (surviving cells x colonies formed vs. control), U87-MG^shp53; settings: for dosage required to achieve an overall effect of 38%: U87-MG^shp53 (FIG. 1D); for overall effect, Observed TTFields + AZD1152 / overall effect, AZD1152: 72 h; for overall effect, Expected: expected value for the combination; for overall effect, AZD1152: surviving cells x colonies vs. control
# Experimental: as §1, §2, §3
# [3] = U87-MGShp53, AZD1152 12.5 nM + TTFIELDS 200 kHz 1.6 V/cm RMS
# [4] = U87-MGShp53, AZD1152 12.5 nM, CONTROL (no TTFields)
# [5] = U87-MGShp53, AZD1152 25 nM + TTFIELDS 200 kHz 1.6 V/cm RMS
# [6] = U87-MGShp53, AZD1152 25 nM, CONTROL (no TTFields)
# [7] = U87-MGShp53, AZD1152 50 nM + TTFIELDS 200 kHz 1.6 V/cm RMS
# [8] = U87-MGShp53, AZD1152 50 nM, CONTROL (no TTFields)
compound,measurement,setting,value
"CCN(CCCOc1ccc2c(Nc3cc(CC(=O)Nc4cccc(F)c4)n[nH]3)ncnc2c1)CCOP(=O)(O)O [AZD1152, Barasertib]",DNA copy number 2n,U87-MG^shp53 [1]; [3],44%
same,DNA copy number 4n,U87-MG^shp53 [1]; [3],34%
same,DNA copy number 8n,U87-MG^shp53 [1]; [3],19%
same,DNA copy number 2n,U87-MG^shp53 [1]; [4],46%
same,DNA copy number 4n,U87-MG^shp53 [1]; [4],29%
same,DNA copy number 8n,U87-MG^shp53 [1]; [4],6%
same,DNA copy number 16n,U87-MG^shp53 [1]; [4],1%
same,DNA copy number 32n,U87-MG^shp53 [1]; [4],0%
same,DNA copy number 2n,U87-MG^shp53 [1]; [5],10%
same,DNA copy number 4n,U87-MG^shp53 [1]; [5],36%
same,DNA copy number 8n,U87-MG^shp53 [1]; [5],29%
same,DNA copy number 2n,U87-MG^shp53 [1]; [6],48%
same,DNA copy number 4n,U87-MG^shp53 [1]; [6],25%
same,DNA copy number 8n,U87-MG^shp53 [1]; [6],6%
same,DNA copy number 16n,U87-MG^shp53 [1]; [6],1%
same,DNA copy number 32n,U87-MG^shp53 [1]; [6],0%
same,DNA copy number 2n,U87-MG^shp53 [1]; [7],2%
same,DNA copy number 4n,U87-MG^shp53 [1]; [7],21%
same,DNA copy number 8n,U87-MG^shp53 [1]; [7],38%
same,DNA copy number 2n,U87-MG^shp53 [1]; [8],40%
same,DNA copy number 4n,U87-MG^shp53 [1]; [8],33%
same,DNA copy number 8n,U87-MG^shp53 [1]; [8],11%
same,DNA copy number 16n,U87-MG^shp53 [1]; [8],3%
same,DNA copy number 32n,U87-MG^shp53 [1]; [8],0%
same,"overall effect, Observed TTFields + AZD1152",U87-MG; AZD1152 25 nM + TTFIELDS 200 kHz 1.6 V/cm RMS,10.0%
same,"overall effect, Expected",U87-MG; AZD1152 25 nM + TTFields,15.0%
same,"overall effect, AZD1152",U87-MG; AZD1152 25 nM alone,31%
same,"overall effect, Observed TTFields + AZD1152",U87-MG; AZD1152 50 nM + TTFIELDS 200 kHz 1.6 V/cm RMS,6.0%
same,"overall effect, Expected",U87-MG; AZD1152 50 nM + TTFields,8.0%
same,"overall effect, AZD1152",U87-MG; AZD1152 50 nM alone,16.5%
same,"overall effect, Observed TTFields + AZD1152",U87-MG; AZD1152 100 nM + TTFIELDS 200 kHz 1.6 V/cm RMS,4.0%
same,"overall effect, Expected",U87-MG; AZD1152 100 nM + TTFields,2.2%
same,"overall effect, AZD1152",U87-MG; AZD1152 100 nM alone,4.5%
same,dosage required to achieve an overall effect of 38%,U87-MG^shp53 [2]; combined with TTFields,25 nM
same,dosage required to achieve an overall effect of 38%,U87-MG^shp53 [2]; in the absence of TTFields,70 nM
same,"overall effect, Observed TTFields + AZD1152","U87-MG^shp53 [2]; U87-MG^shp53, AZD1152 25 nM + TTFields 200 kHz 1.6 V/cm RMS",39.0%
same,"overall effect, Expected","U87-MG^shp53 [2]; U87-MG^shp53, AZD1152 25 nM + TTFields",51.0%
same,"overall effect, AZD1152","U87-MG^shp53 [2]; U87-MG^shp53, AZD1152 25 nM alone",79%
same,"overall effect, Observed TTFields + AZD1152","U87-MG^shp53 [2]; U87-MG^shp53, AZD1152 50 nM + TTFields 200 kHz 1.6 V/cm RMS",13.0%
same,"overall effect, Expected","U87-MG^shp53 [2]; U87-MG^shp53, AZD1152 50 nM + TTFields",33.9%
same,"overall effect, AZD1152","U87-MG^shp53 [2]; U87-MG^shp53, AZD1152 50 nM alone",52.5%
same,"overall effect, Observed TTFields + AZD1152","U87-MG^shp53 [2]; U87-MG^shp53, AZD1152 100 nM + TTFields 200 kHz 1.6 V/cm RMS",2.5%
same,"overall effect, Expected","U87-MG^shp53 [2]; U87-MG^shp53, AZD1152 100 nM + TTFields",7.1%
same,"overall effect, AZD1152","U87-MG^shp53 [2]; U87-MG^shp53, AZD1152 100 nM alone",11%
same,reduction of dosage required for a given level of overall effect when combined with TTFields,"U87-MG^shp53 [2]; with respect to the dosage giving the same overall effect in the absence of an alternating electric field, 'can often be'",at least 50%
